These results are taken from patent US20250163072A1, “MACROCYCLIC COMPOUNDS FOR THE TREATMENT OF CANCER” (Hoffmann-La Roche Inc., priority 2021, published 2025).

Structures are written as SMILES. pIC50: −log10 of the molar value.

What all share (format): cell-based, human
The subject of one assay is AGS cells. Briefly: Cell viability assay, AGS. The following applies: Homo sapiens, 72 hours, Cell Counting Kit-8, read-out: G12D IC50. The method, then:
(§1) The purpose of this cellular assay was to determine the effects of test compounds on the proliferation of human cancer cell lines NCI-H358 (ATCC-CRL5807) cells, AGS (ATCC-CRL-1739) cells, SW620 (ATCC-CCL-227) over a 3-day treatment period by quantifying the amount of NADPH present at endpoint using Cell Counting Kit-8. Cells were seeded at 5,000 cells/well (NCI-H358), 2,000 cells/well (AGS) 2,000 cells/well (SW620) in 96-well assay plates (Corning-3699) and incubated overnight. On the day of the assay, diluted compounds were then added in a final concentration of 0.5% DMSO. After 72 hours incubation, a tenth of the volume of cell counting kit 8(Dnjindo-CK04) was added into each well. Read the signal (OD450 minus OD650) using EnVision after 2 hours incubation. IC50 was determined by fitting a 4-parameter sigmoidal concentration response model.
In general terms: Tetrazolium assays rely on reduction of a dye to a coloured formazan, in cell work by metabolically active cells.

The test system of the next assay is SW620 cells. In words: Cell viability assay, SW620. The following applies: Homo sapiens, SW-620, SW620, 72 hours, Cell Counting Kit-8, read-out: G12V IC50. On the procedure:
as §1

The next assay concerns NCI-H358 cells. Briefly: Cell viability assay, NCI-H358. The conditions noted are these: Homo sapiens, NCI-H358, 72 hours, Cell Counting Kit-8, read-out: G12C IC50. The method, then:
as §1

For assay [1], the system named is KRAS G12C in NCI-H358 cells. In words: pERK inhibition assay, NCI-H358. The conditions noted are these: Homo sapiens, 4 hours incubation. The method, then: (§2) This assay is to measure the ability of test compounds in inhibiting the phosphorylation of ERK, the downstream signaling of KRAS G12C in NCI-H358 cells, KRAS G12D in AGS cells, and KRAS G12V in SW620. NCI-H358 (ATCC-CRL5807) cells, AGS (ATCC-CRL-1739) cells, SW620 (ATCC-CCL-227) cells were all grown and maintained using RPMI-1640 medium (Thermo Fisher Scientific) with 10% fetal bovine serum and 1% penicillin/streptomycin. On the day prior to compound addition, cells were plated in tissue culture-treated 96 well plates (Corning-3699) at a density of 30,000 cell/well, 20,000 cell/well, 30,000 cell/well for NCI-H358, AGS and SW620 respectively, and allowed for attachment overnight. Diluted compounds were then added in a final concentration of 0.5% DMSO. After 4 hours of incubation, the medium was removed, 100 μL of 4% formaldehyde was added, and the assay plates were incubated at room temperature for 20 minutes. The plates were then washed once with phosphate buffered saline (PBS), and permeabilized with 100 μL of chilled methanol for 10 minutes. Non-specific antibody binding to the plates was blocked using 50 μL 1×BSA blocking buffer (Thermo-37520, 10-fold dilution by Phosphate-Buffered Saline Tween (PBST) for at least 1 hour at room temperature. The amount of phosphor-ERK was determined using an antibody specific for phosphorylated form of ERK. Primary antibody (pERK, CST-4370, Cell Signaling Technology) was diluted 1:300 in blocking buffer, with 50 μL aliquoted to each well, and incubated overnight at 4° C. Cells were washed five times for 5 minutes with PBST. Secondary antibody (HRP-linked anti-rabbit IgG, CST-7074, Cell Signaling Technology) was diluted 1:1000 in blocking buffer, and 50 μL was added to each well and incubated 1-2 hours at room temperature. Cells were washed 5 times for 5 minutes with PBST, 100 μL TMB ELISA substrate (abcam-ab171523) were added and gently shake for 20 minutes. 50 μL stop solution (abcam-ab171529) were added, and then read the signal (OD450) by EnVision. IC50 was determined by fitting a 4-parameter sigmoidal concentration response model.

Another assay concerns KRAS G12V in SW620. Briefly: pERK inhibition assay, SW620. The conditions noted are these: Homo sapiens, SW-620, SW620 cells, 4 hours incubation. The method, then: as §2
The subject of another assay is KRAS G12D in AGS cells. Briefly: pERK inhibition assay, AGS. The following applies: Homo sapiens, 4 hours incubation. On the procedure: as §2

By pIC50 is commonly meant −log10 of the IC50, conventionally taken in molar units. With `C#CC1CN(C(=O)N(C)[C@H](C(=O)N[C@H]2Cc3cc(O)cc(c3)-c3ccc4c(c3)c(c(-c3cccnc3[C@H](C)OC)n4CC)CC(C)(C)COC(=O)[C@@H]3CCCN(N3)C2=O)C(C)C)C1` (atropisomer, axis not shown; (M)) [Example 14, N-[(1S)-1-[[(8S,14S)-22-ethyl-4-hydroxy-(21M)-21-[2-[(1S)-1-methoxyethyl]-3-pyridyl]-18,18-dimethyl-9,15-dioxo-16-oxa-10,22,28-triazapentacyclo[18.5.2.12,6.110,14.023,27]nonacosa-1(26),2,4,6(29),20,23(27),24-heptaen-8-yl]carbamoyl]-2-methyl-propyl]-3-ethynyl-N-methyl-azetidine-1-carboxamide], the pIC50 in the assay with AGS cells is 5.86; with SW620 cells, 6.44; in the assay on NCI-H358 cells, 6.85; in assay [1], 7.20; in the assay with KRAS G12V in SW620, 6.97; with KRAS G12D in AGS cells, 6.28.
On to `C#CC1CCN(C(=O)N(C)[C@H](C(=O)N[C@H]2Cc3cc(O)cc(c3)-c3ccc4c(c3)c(c(-c3cccnc3[C@H](C)OC)n4CC)CC(C)(C)COC(=O)[C@@H]3CCCN(N3)C2=O)C(C)C)CC1` (atropisomer, axis not shown; (M)) [Example 15, N-[(1S)-1-[[(8S,14S)-22-ethyl-4-hydroxy-(21M)-21-[2-[(1S)-1-methoxyethyl]-3-pyridyl]-18,18-dimethyl-9,15-dioxo-16-oxa-10,22,28-triazapentacyclo[18.5.2.12,6.110,14.023,27]nonacosa-1(26),2,4,6(29),20,23(27),24-heptaen-8-yl]carbamoyl]-2-methyl-propyl]-4-ethynyl-N-methyl-piperidine-1-carboxamide], for which the pIC50 with AGS cells is 5.91; in the assay on SW620 cells, 6.55; in the assay on NCI-H358 cells, 7.05; in assay [1], 7.49; in the assay on KRAS G12V in SW620 it was 7.17; in the assay on KRAS G12D in AGS cells, 6.54.
`C#CC1(F)CCN(C(=O)N(C)[C@H](C(=O)N[C@H]2Cc3cc(O)cc(c3)-c3ccc4c(c3)c(c(-c3cccnc3[C@H](C)OC)n4CC)CC(C)(C)COC(=O)[C@@H]3CCCN(N3)C2=O)C(C)C)CC1` (atropisomer, axis not shown; (M)) [Example 16, N-[(1S)-1-[[(8S,14S)-22-ethyl-4-hydroxy-(21M)-21-[2-[(1S)-1-methoxyethyl]-3-pyridyl]-18,18-dimethyl-9,15-dioxo-16-oxa-10,22,28-triazapentacyclo[18.5.2.12,6.110,14.023,27]nonacosa-1(26),2,4,6(29),20,23(27),24-heptaen-8-yl]carbamoyl]-2-methyl-propyl]-4-ethynyl-4-fluoro-N-methyl-piperidine-1-carboxamide]: the negative logarithm of the IC50 (pIC50) is 5.93 with AGS cells; 6.53 with SW620 cells; 7.11 in the assay on NCI-H358 cells; 7.37 in assay [1]; 7.11 in the assay with KRAS G12V in SW620; 6.28 in the assay with KRAS G12D in AGS cells.
Consider `CCn1c(-c2cccnc2[C@H](C)OC)c2c3cc(ccc31)-c1cc(O)cc(c1)C[C@H](NC(=O)[C@H](C(C)C)N(C)C(=O)C1CCN(C(=O)C#CCN3CCOCC3)C1)C(=O)N1CCC[C@H](N1)C(=O)OCC(C)(C)C2` (stereo partly drawn) [RM018, reference compound], for which the pIC50 is below 5.00 in the assay with AGS cells; below 6.00 in the assay on SW620 cells; 8.40 with NCI-H358 cells; 8.10 in assay [1]; below 6.00 in the assay on KRAS G12V in SW620; below 5.00 in the assay on KRAS G12D in AGS cells.
Consider `CCn1c(-c2cccnc2[C@H](C)OC)c2c3cc(ccc31)-c1cc(O)cc(c1)C[C@H](NC(=O)[C@H](C(C)C)N(C)C(=O)[C@H]1CCN(C(=O)C(C)=O)C1)C(=O)N1CCC[C@H](N1)C(=O)OCC(C)(C)C2` (atropisomer, axis not shown; (M)) [Example 5, (3S)-N-[(1S)-1-[[(8S,14S)-22-ethyl-4-hydroxy-(21M)-21-[2-[(1S)-1-methoxyethyl]-3-pyridyl]-18,18-dimethyl-9,15-dioxo-16-oxa-10,22,28-triazapentacyclo[18.5.2.12,6.110,14.023,27]nonacosa-1(26),2,4,6(29),20,23(27),24-heptaen-8-yl]carbamoyl]-2-methyl-propyl]-N-methyl-1-(2-oxopropanoyl)pyrrolidine-3-carboxamide], for which the negative logarithm of the IC50 (pIC50) in the assay with AGS cells is 6.65; with SW620 cells, 7.24; in the assay on NCI-H358 cells it was 7.11; in assay [1], 8.10; with KRAS G12V in SW620, 7.59; in the assay with KRAS G12D in AGS cells it was 6.98.
Regarding `CO[C@@H](C)c1ncccc1-c1c2c3cc(ccc3n1CC(F)(F)F)-c1csc(n1)C[C@H](NC(=O)[C@H](C(C)C)N(C)C(=O)[C@H]1CCN(C(=O)[C@H](F)Cl)C1)C(=O)N1CCC[C@H](N1)C(=O)OCC(C)(C)C2` (atropisomer, axis not shown; (M)) [Example 22, (3S)-1-[(2R)-2-chloro-2-fluoro-acetyl]-N-[(1S)-1-[[(7S,13S)-(20M)-20-[2-[(1S)-1-methoxyethyl]-3-pyridyl]-17,17-dimethyl-8,14-dioxo-21-(2,2,2-trifluoroethyl)-15-oxa-4-thia-9,21,27,28-tetrazapentacyclo[17.5.2.12,5.19,13.022,26]octacosa-1(25),2,5(28),19,22(26),23-hexaen-7-yl]carbamoyl]-2-methyl-propyl]-N-methyl-pyrrolidine-3-carboxamide], the pIC50 in the assay with AGS cells is 6.06; in the assay on SW620 cells it was 6.59; in the assay on NCI-H358 cells it was 7.79; in assay [1], 7.26; in the assay on KRAS G12V in SW620, 6.99; in the assay on KRAS G12D in AGS cells it was 6.70.
